The values that follow come from ChEMBL document CHEMBL1138173, “Synthesis and biological evaluation of photoaffinity labeled fusidic acid analogues” (2006).

Common to all, as to format: functional
Experiment [1] concerns Staphylococcus aureus. In words: Antibacterial activity against Staphylococcus aureus CJ 234 R.
For experiment [2], the system named is Staphylococcus aureus. Kind of experiment: Antibacterial activity against Staphylococcus aureus CJ 200.
For experiment [3], the system named is Staphylococcus aureus. In words: Antibacterial activity against Staphylococcus aureus CJ 251.
In experiment [4] the test system is Staphylococcus aureus. Kind of experiment: Antibacterial activity against Staphylococcus aureus CJ 288.
For experiment [5], the system named is Staphylococcus epidermidis. In words: Antibacterial activity against Staphylococcus epidermidis CK 5.
Experiment [6] concerns Corynebacterium xerosis. In words: Antibacterial activity against Corynebacterium xerosis FF.
Experiment [7] concerns Staphylococcus aureus. Kind of experiment: Antibacterial activity against Staphylococcus aureus CJ 247.

For orientation: MIC means the lowest concentration found to suppress growth. A low value points to greater potency.

In brackets after ≈: the same amount, converted by molar mass.

For the compound `CC(=O)O[C@H]1C[C@@]2(C)[C@@H](C[C@@H](O)[C@H]3[C@@]4(C)CC[C@@H](O)[C@@H](C)C4CC[C@@]32C)/C1=C(\CCCCc1ccc(C2(C(F)(F)F)N=N2)cc1)C(=O)O` (stereo partly specified), the minimal inhibitory concentration (MIC) in experiment [1] came out at 1 µg/mL (≈ 1.48 µM); in experiment [2], 2 µg/mL (≈ 2.96 µM); in experiment [3], 1 µg/mL (≈ 1.48 µM); in experiment [4], 1 µg/mL (≈ 1.48 µM); in experiment [5], 1 µg/mL (≈ 1.48 µM); in experiment [6] it was 0.063 µg/mL (≈ 0.0934 µM).
`CC(=O)O[C@H]1C[C@@]2(C)[C@@H](C[C@@H](O)[C@H]3[C@@]4(C)CC[C@@H](O)[C@@H](C)[C@@H]4CC[C@@]32C)/C1=C(\CCC=C(C)C)C(=O)O` [FUSIDIC ACID]: the MIC is 0.063 µg/mL (≈ 0.122 µM) in experiment [7]; less than 0.063 µg/mL in experiment [1]; 0.063 µg/mL (≈ 0.122 µM) in experiment [2]; less than 0.063 µg/mL in experiment [3]; less than 0.063 µg/mL in experiment [4]; 0.063 µg/mL (≈ 0.122 µM) in experiment [5]. In addition, 0.016 µg/mL (≈ 0.031 µM) was the least that counted as inhibitory in experiment [6] (MIC).
As to `CC(=O)O[C@H]1C[C@@]2(C)[C@@H](C[C@@H](O)[C@H]3[C@@]4(C)CC[C@@H](O)[C@@H](C)C4CC[C@@]32C)/C1=C(\CCCCc1ccc(C(=O)c2ccccc2)cc1)C(=O)O` (stereo partly specified), the minimal inhibitory concentration (MIC) is 1 µg/mL (≈ 1.49 µM) in experiment [7]; 1 µg/mL (≈ 1.49 µM) in experiment [1]; 4 µg/mL (≈ 5.96 µM) in experiment [2]; 1 µg/mL (≈ 1.49 µM) in experiment [3]; 1 µg/mL (≈ 1.49 µM) in experiment [4]; 1 µg/mL (≈ 1.49 µM) in experiment [5]. The compound further came in with an MIC in experiment [6] of 0.016 µg/mL (≈ 0.0238 µM).
As for `CC(=O)O[C@H]1C[C@@]2(C)[C@@H](C[C@@H](O)[C@H]3[C@@]4(C)CC[C@@H](O)[C@@H](C)C4CC[C@@]32C)/C1=C(\CCCCc1ccc(N=[N+]=[N-])cc1)C(=O)O` (stereo partly specified), the MIC in experiment [1] stood at 1 µg/mL (≈ 1.65 µM); in experiment [2] it was 1 µg/mL (≈ 1.65 µM); in experiment [3] it was 1 µg/mL (≈ 1.65 µM); in experiment [4] it was 1 µg/mL (≈ 1.65 µM); in experiment [5], 4 µg/mL (≈ 6.58 µM); in experiment [6], 0.016 µg/mL (≈ 0.0263 µM).
